The text below walks through data of publication PMC7982674, “XMD-17-51 Inhibits DCLK1 Kinase and Prevents Lung Cancer Progression” (Frontiers in Pharmacology, 2021).

This experiment has as its target T1, Doublecortin-like kinase 1 (DCLK1) (Homo sapiens, UniProt O15075).
T1 construct: Purified kinase-active DCLK1 (cat. no., 02-139, Carna Biosciences)
T1 sequence (O15075 1-740): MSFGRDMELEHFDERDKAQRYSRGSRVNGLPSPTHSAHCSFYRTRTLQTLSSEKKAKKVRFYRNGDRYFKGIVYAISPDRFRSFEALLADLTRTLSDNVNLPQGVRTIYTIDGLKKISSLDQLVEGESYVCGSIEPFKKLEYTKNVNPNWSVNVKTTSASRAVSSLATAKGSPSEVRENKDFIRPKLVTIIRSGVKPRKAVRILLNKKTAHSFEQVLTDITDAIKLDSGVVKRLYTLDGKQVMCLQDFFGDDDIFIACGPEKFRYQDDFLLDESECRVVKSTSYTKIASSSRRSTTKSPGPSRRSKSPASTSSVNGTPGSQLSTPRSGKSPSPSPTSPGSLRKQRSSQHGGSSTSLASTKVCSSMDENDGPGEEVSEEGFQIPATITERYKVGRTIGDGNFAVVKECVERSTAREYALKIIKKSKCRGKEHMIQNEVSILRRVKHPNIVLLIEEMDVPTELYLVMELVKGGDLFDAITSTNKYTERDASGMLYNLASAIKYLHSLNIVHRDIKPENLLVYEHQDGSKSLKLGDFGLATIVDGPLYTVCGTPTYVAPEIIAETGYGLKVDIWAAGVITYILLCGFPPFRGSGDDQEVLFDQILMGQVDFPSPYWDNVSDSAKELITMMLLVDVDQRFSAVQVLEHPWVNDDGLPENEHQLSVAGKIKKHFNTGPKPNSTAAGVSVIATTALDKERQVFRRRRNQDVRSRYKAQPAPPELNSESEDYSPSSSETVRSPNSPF
The experiment is described as follows: cell-free kinase assay with ULight-CREBtide peptide substrate, […] ATP (Envision readout). The class given is biochemical.

For the molecule `CN1C(=O)c2ccccc2N(C)c2nc(Nc3cnn(C4CCNCC4)c3)ncc21` [XMD-17-51], the IC50 (in general, the point on the concentration scale where inhibition reaches its midpoint) was found to be 14.6 nM.
